One assay concerns MCF7. In words: inhibitory concentration against the growth of breast cancer MCF-7 cell line after 72 hr of exposure. In kind it is functional, cell-based. To be noted: Homo sapiens, MCF7, 72 h.
For the next assay, the system named is A549. In words: inhibitory concentration against the growth of Non-small-cell lung carcinoma A549 cell line after 72 hr of exposure. In kind it is functional, cell-based. As to conditions: Homo sapiens, A549, 72 h.

Structures are written as SMILES.

As a reminder, the IC50 is the concentration that inhibits the measured activity by half. A low value points to greater potency in that assay.

Consider `CCCCOC(=O)N[C@@H](c1cccs1)[C@@H](O)C(=O)O[C@H]1C[C@@]2(O)[C@@H](OC(=O)c3cc(OC)ccc3OC)[C@@H]3[C@]4(OC(C)=O)CO[C@@H]4C[C@H](O)[C@@]3(C)C(=O)[C@H](OC(C)=O)C(=C1C)C2(C)C`, for which the IC50 with MCF7 and with A549 was 40 nM in each case.

For `COc1ccc(OC)c(C(=O)O[C@H]2[C@@H]3[C@]4(OC(C)=O)CO[C@@H]4C[C@H](O)[C@@]3(C)C(=O)[C@H](OC(C)=O)C3=C(C)[C@@H](OC(=O)[C@H](O)[C@@H](NC(=O)c4ccco4)c4ccco4)C[C@]2(O)C3(C)C)c1`, the IC50 in the assay on MCF7 amounted to 120 nM; in the assay with A549, 90 nM.

On to `CCCCOC(=O)N[C@@H](C=C(C)C)[C@@H](O)C(=O)O[C@H]1C[C@@]2(O)[C@@H](OC(=O)c3cc(OC)ccc3OC)[C@@H]3[C@]4(OC(C)=O)CO[C@@H]4C[C@H](O)[C@@]3(C)C(=O)[C@H](OC(C)=O)C(=C1C)C2(C)C`, for which the half-maximal inhibitory concentration (IC50) worked out at 30 nM with MCF7 and 40 nM in the assay with A549.

`COc1ccc(OC)c(C(=O)O[C@H]2[C@@H]3[C@]4(OC(C)=O)CO[C@@H]4C[C@H](O)[C@@]3(C)C(=O)[C@H](OC(C)=O)C3=C(C)[C@@H](OC(=O)[C@H](O)[C@@H](NC(=O)c4ccccc4)c4cccs4)C[C@]2(O)C3(C)C)c1`: the IC50 in the assay with MCF7 and in the assay on A549 was greater than 3000 nM throughout.

Take `COc1ccc(OC)c(C(=O)O[C@H]2[C@@H]3[C@]4(OC(C)=O)CO[C@@H]4C[C@H](O)[C@@]3(C)C(=O)[C@H](OC(C)=O)C3=C(C)[C@@H](OC(=O)[C@H](O)[C@H](C=C(C)C)NC(=O)c4cccs4)C[C@]2(O)C3(C)C)c1`: the figures for the half-maximal inhibitory concentration (IC50) in the assay with MCF7 and with A549 were 30 nM and 40 nM, respectively.

With `CCCCOC(=O)N[C@@H](c1ccco1)[C@@H](O)C(=O)O[C@H]1C[C@@]2(O)[C@@H](OC(=O)c3cc(OC)ccc3OC)[C@@H]3[C@]4(OC(C)=O)CO[C@@H]4C[C@H](O)[C@@]3(C)C(=O)[C@H](OC(C)=O)C(=C1C)C2(C)C`, the IC50 in the assay with MCF7 and in the assay on A549 was 30 nM each time.

Take `COc1ccc(OC)c(C(=O)O[C@H]2[C@@H]3[C@]4(OC(C)=O)CO[C@@H]4C[C@H](O)[C@@]3(C)C(=O)[C@H](OC(C)=O)C3=C(C)[C@@H](OC(=O)[C@H](O)[C@@H](NC(=O)c4cccs4)c4cccs4)C[C@]2(O)C3(C)C)c1`: the concentration for half-maximal inhibition (IC50) in the assay with MCF7 and with A549 was 30 nM in each case.

As for `COc1ccc(OC)c(C(=O)O[C@H]2[C@@H]3[C@]4(OC(C)=O)CO[C@@H]4C[C@H](O)[C@@]3(C)C(=O)[C@H](OC(C)=O)C3=C(C)[C@@H](OC(=O)[C@H](O)[C@@H](NC(=O)OC(C)(C)C)c4cccs4)C[C@]2(O)C3(C)C)c1`, the IC50 in the assay with MCF7 and with A549 was 30 nM each time.

Regarding `COc1ccc(OC)c(C(=O)O[C@H]2[C@@H]3[C@]4(OC(C)=O)CO[C@@H]4C[C@H](O)[C@@]3(C)C(=O)[C@H](OC(C)=O)C3=C(C)[C@@H](OC(=O)[C@H](O)[C@@H](NC(=O)c4ccccc4)c4ccccc4)C[C@]2(O)C3(C)C)c1`, the figures for the IC50 in the assay on MCF7 and with A549 were 30 nM and 130 nM, respectively.

`COc1ccc(OC)c(C(=O)O[C@H]2[C@@H]3[C@]4(OC(C)=O)CO[C@@H]4C[C@H](O)[C@@]3(C)C(=O)[C@H](OC(C)=O)C3=C(C)[C@@H](OC(=O)[C@H](O)[C@@H](NC(=O)c4cccs4)c4ccco4)C[C@]2(O)C3(C)C)c1`: the half-inhibitory concentration (IC50) with MCF7 is 60 nM; in the assay with A549, 100 nM.

For `C/C=C/C(=O)N[C@@H](C=C(C)C)[C@@H](O)C(=O)O[C@H]1C[C@@]2(O)[C@@H](OC(=O)c3cc(OC)ccc3OC)[C@@H]3[C@]4(OC(C)=O)CO[C@@H]4C[C@H](O)[C@@]3(C)C(=O)[C@H](OC(C)=O)C(=C1C)C2(C)C`, the half-maximal inhibitory concentration (IC50) was found to be 10 nM with MCF7 and 30 nM in the assay on A549.

`C/C=C/C(=O)N[C@@H](c1ccco1)[C@@H](O)C(=O)O[C@H]1C[C@@]2(O)[C@@H](OC(=O)c3cc(OC)ccc3OC)[C@@H]3[C@]4(OC(C)=O)CO[C@@H]4C[C@H](O)[C@@]3(C)C(=O)[C@H](OC(C)=O)C(=C1C)C2(C)C`: the IC50 in the assay on MCF7 is 130 nM; in the assay on A549, 160 nM.

Consider `COc1ccc(OC)c(C(=O)O[C@H]2[C@@H]3[C@]4(OC(C)=O)CO[C@@H]4C[C@H](O)[C@@]3(C)C(=O)[C@H](OC(C)=O)C3=C(C)[C@@H](OC(=O)[C@H](O)[C@H](C=C(C)C)NC(=O)c4ccccc4)C[C@]2(O)C3(C)C)c1`, for which the IC50 in the assay on MCF7 and with A549 was 40 nM in each case.

For `COc1ccc(OC)c(C(=O)O[C@H]2[C@@H]3[C@]4(OC(C)=O)CO[C@@H]4C[C@H](O)[C@@]3(C)C(=O)[C@H](OC(C)=O)C3=C(C)[C@@H](OC(=O)[C@H](O)[C@@H](NC(=O)c4ccccc4)c4ccco4)C[C@]2(O)C3(C)C)c1`, the IC50 in the assay with MCF7 came out at 210 nM; with A549, 220 nM.

Regarding `COc1ccc(OC)c(C(=O)O[C@H]2[C@@H]3[C@]4(OC(C)=O)CO[C@@H]4C[C@H](O)[C@@]3(C)C(=O)[C@H](OC(C)=O)C3=C(C)[C@@H](OC(=O)[C@H](O)[C@@H](NC(=O)C=C(C)C)c4ccco4)C[C@]2(O)C3(C)C)c1`, the IC50 in the assay with MCF7 came out at 40 nM; in the assay on A549 it was 30 nM.

As to `COc1ccc(OC)c(C(=O)O[C@H]2[C@@H]3[C@]4(OC(C)=O)CO[C@@H]4C[C@H](O)[C@@]3(C)C(=O)[C@H](OC(C)=O)C3=C(C)[C@@H](OC(=O)[C@H](O)[C@H](C=C(C)C)NC(=O)OC(C)(C)C)C[C@]2(O)C3(C)C)c1`, the IC50 in the assay with MCF7 and in the assay on A549 was 40 nM throughout.

Consider `COc1ccc(OC)c(C(=O)O[C@H]2[C@@H]3[C@]4(OC(C)=O)CO[C@@H]4C[C@H](O)[C@@]3(C)C(=O)[C@H](OC(C)=O)C3=C(C)[C@@H](OC(=O)[C@H](O)[C@H](C=C(C)C)NC(=O)c4ccco4)C[C@]2(O)C3(C)C)c1`, for which the IC50 was determined as 30 nM in the assay on MCF7 and 60 nM with A549.

As for `COc1ccc(OC)c(C(=O)O[C@H]2[C@@H]3[C@]4(OC(C)=O)CO[C@@H]4C[C@H](O)[C@@]3(C)C(=O)[C@H](OC(C)=O)C3=C(C)[C@@H](OC(=O)[C@H](O)[C@@H](NC(=O)c4ccco4)c4cccs4)C[C@]2(O)C3(C)C)c1`, the figures for the IC50 with MCF7 and with A549 were 60 nM and 50 nM, respectively.

For `COc1ccc(OC)c(C(=O)O[C@H]2[C@@H]3[C@]4(OC(C)=O)CO[C@@H]4C[C@H](O)[C@@]3(C)C(=O)[C@H](OC(C)=O)C3=C(C)[C@@H](OC(=O)[C@H](O)[C@H](C=C(C)C)NC(=O)C=C(C)C)C[C@]2(O)C3(C)C)c1`, the IC50 in the assay on MCF7 and in the assay on A549 was 20 nM in each case.

Consider `COc1ccc(OC)c(C(=O)O[C@H]2[C@@H]3[C@]4(OC(C)=O)CO[C@@H]4C[C@H](O)[C@@]3(C)C(=O)[C@H](OC(C)=O)C3=C(C)[C@@H](OC(=O)[C@H](O)[C@@H](NC(=O)C=C(C)C)c4cccs4)C[C@]2(O)C3(C)C)c1`, for which the figures for the IC50 in the assay on MCF7 and in the assay with A549 were 50 nM and 40 nM, respectively.

Consider `C/C=C/C(=O)N[C@@H](c1cccs1)[C@@H](O)C(=O)O[C@H]1C[C@@]2(O)[C@@H](OC(=O)c3cc(OC)ccc3OC)[C@@H]3[C@]4(OC(C)=O)CO[C@@H]4C[C@H](O)[C@@]3(C)C(=O)[C@H](OC(C)=O)C(=C1C)C2(C)C`, for which the IC50 turned out to be 160 nM with MCF7 and 180 nM with A549.

Consider `COc1ccc(OC)c(C(=O)O[C@H]2[C@@H]3[C@]4(OC(C)=O)CO[C@@H]4C[C@H](O)[C@@]3(C)C(=O)[C@H](OC(C)=O)C3=C(C)[C@@H](OC(=O)[C@H](O)[C@@H](NC(=O)OC(C)(C)C)c4ccccc4)C[C@]2(O)C3(C)C)c1`, for which the IC50 was 60 nM in the assay on MCF7 and 50 nM in the assay with A549.

On to `COc1ccc(OC)c(C(=O)O[C@H]2[C@@H]3[C@]4(OC(C)=O)CO[C@@H]4C[C@H](O)[C@@]3(C)C(=O)[C@H](OC(C)=O)C3=C(C)[C@@H](OC(=O)[C@H](O)[C@@H](NC(=O)OC(C)(C)C)c4ccco4)C[C@]2(O)C3(C)C)c1`, for which the IC50 in the assay on MCF7 is 40 nM; with A549 it was 30 nM.

With `CC(=O)O[C@@]12CO[C@@H]1C[C@H](O)[C@@]1(C)C(=O)[C@H](O)C3=C(C)[C@@H](OC(=O)[C@H](O)[C@@H](NC(=O)OC(C)(C)C)c4ccccc4)C[C@@](O)([C@@H](OC(=O)c4ccccc4)[C@H]21)C3(C)C` [DOCETAXEL], the half-inhibitory concentration (IC50) in the assay on MCF7 and in the assay on A549 was 1000 nM in each case.

`CC(=O)O[C@H]1C(=O)[C@@]2(C)[C@H]([C@H](OC(=O)c3ccccc3)[C@]3(O)C[C@H](OC(=O)[C@H](O)[C@@H](NC(=O)c4ccccc4)c4ccccc4)C(C)=C1C3(C)C)[C@]1(OC(C)=O)CO[C@@H]1C[C@@H]2O` [PACLITAXEL]: the IC50 with MCF7 came to 800 nM; with A549, 1700 nM.

These data come from ChEMBL document CHEMBL1138706, “Synthesis and biological evaluation of novel taxoids designed for targeted delivery to tumors” (Bioorg Med Chem Lett, 2004).
